According to paper PMC7578061, “Potent inhibition of tumour cell proliferation and immunoregulatory function by mitochondria-targeted atovaquone” (Scientific Reports, 2020):

Columns and labels:
MiaPaCa-2 cells = experiment: IncuCyte cell proliferation (cell confluence), MiaPaCa-2; format: cell-based, human; conditions: for Antiproliferative effect compared with corresponding Mito-ATO analogs: MiaPaCa-2 cells, Figure S3; for IC50: Homo sapiens, MIA PaCa-2, MiaPaCa-2 cells, confluence as control groups reach 98% confluency, read-out: IC50, inhibition of cell proliferation (cell confluence)
Experimental: (§1) The following cell lines were obtained from the American Type Culture Collection (Manassas, VA), where they were regularly authenticated: MiaPaCa-2 (ATCC#CRL-1420, human pancreatic cancer), MDA-MB-231 (ATCC#HTB-26, human breast cancer), A549 (ATCC#CCL-185, human lung cancer), LLC (ATCC#CLR-1642, mouse lung cancer). LKR13 mouse lung cancer cells were a gift from Dr. Jonathan M. Kurie (MD Anderson Cancer Center, Houston, TX)[30]. All cell lines were grown at 37 °C in 5% CO2. MiaPaCa-2 and MDA-MB-231 cells were maintained in DMEM medium (Thermo Fisher Scientific, #11965) supplemented with 10% foetal bovine serum. A549, LLC, and LKR13 cells were maintained in RPMI 1640 medium (Thermo Fisher Scientific, #11875), supplemented with 10% foetal bovine serum. All cells were stored in liquid nitrogen and used within 20 passages after thawing.
The IncuCyte Live-Cell Imaging system (IncuCyte Essen Bioscience Inc., Ann Arbor, MI) was used to monitor cell proliferation[11]–[13]. As shown in previous publications[11],[12], this imaging system is probe-free and noninvasive, and enables continuous monitoring of cell confluence over several days. The increase in the percentage of cell confluence was used as a surrogate marker of cell proliferation. In a 96-well plate, cells were plated at 1,000 cells per well in triplicates and left to adhere overnight.

[1] = tested on: CD4+ T cells from SMARTA triple reporter mice; experiment: In vitro differentiation of CD4+ T regulatory cells, flow cytometry; format: cell-based, mouse; conditions: six days of culture; for Treg differentiation and/or survival: up to 60 µM; for Foxp3+ Treg differentiation and/or survival: varying concentrations; for Teff cell IFNγ production: dose-dependent
Text: Recent reports indicate that selective targeting and inhibiting of mitochondrial complex III mitigate and reverse immunosuppression by Treg cells, promoting the function of Teff cells[15],[17]. […] After six days, cells were stained to assess viability, phenotype, and function using flow cytometry.
Figure 5 In vitro differentiation of CD4^+ T regulatory cells under varying concentrations of Mito-ATOs and controls. After six days of culture, cells were stained for flow cytometry analysis. (left) Live/dead staining to assess the percentage of live CD4 + T cells within the lymphocyte gate. (middle) Teff cell function is shown as the frequency of IFNγ-YFP positive cells within the live CD4^+ T cells. (right) The percentage of Treg cells is shown as the frequency of FoxP3^+CD25^+ cells within the live CD4^+ T cells. […] I assigned them to Mito10-ATO from the label under the bar charts above. / Panel A contour plots: no measure is printed with the gate percentages. Only the axes CD25 and FoxP3 are printed.
To differentiate CD4^+ T cells into a T regulatory cell phenotype, splenocytes from SMARTA triple-reporter mice were processed and the red blood cell lysed using an ACK (ammonium-chloride-potassium) lysis buffer. The cells were then activated with 1 μg/mL GP61–80 peptide (GenScript, Piscataway, NJ) and 5 ng/mL TGF-β1 (Shenandoah Biotechnology, Inc., Warwick, PA). […] Cells were cultured for six days and split once cells reached confluency; cells were replenished with IL-2 and compound accordingly. After six days in culture, cells were stained to assess the viability and phenotypic analysis via flow cytometry. LIVE/DEAD fixable violet or aqua dead cell stain (Invitrogen, Carlsbad, CA) was used to assess cell viability. The following antibodies were used for flow cytometry staining: PercP anti-mouse CD4 (clone: GK1.5; BioLegend, San Diego, CA), APC/Cy7 anti-mouse CD25 (clone: PC61; BioLegend), and PE anti-mouse FOXP3 (clone: FJK-16S; eBioscience, San Diego, CA). Flow cytometry data were acquired using a BD LSRII (BD Biosciences, CA) flow cytometer and analysed using FlowJo (Treestar, Inc., Ashland, OR).

[2] = target: T1, mitochondrial complex III (Homo sapiens, UniProt P00156+P47985); experiment: Seahorse complex III-driven OCR in permeabilized MiaPaCa-2 cells; format: cell-based; set-up: carried out on acutely permeabilized cells in the presence of different mitochondrial substrates; endogenous in cells; host or cells: MiaPaCa-2 (A7); conditions: for Inhibition of complex III-induced oxygen consumption: MiaPaCa-2 cells, 24 h; for IC50: MiaPaCa-2 cells treated 24 h, duroquinol, read-out: Complex III IC50 (AA-inhibitable OCR)
Experimental: The mitochondrial complex activities were assessed by measuring the oxygen consumption rate (OCR) using the Seahorse technique[6],[11]–[14]. MiaPaCa-2 cells were treated separately with Mito-ATO analogs at different concentrations for 24 h and OCR was measured.
Figure 2 Effects of Mito-ATO analogs on the oxygen consumption induced by mitochondrial complexes I and III. […] MiaPaCa-2 cells were treated with Mito-ATO for 24 h. Relative complex I (1.5 mM malate, 10 mM pyruvate, 10 mM ADP)-driven OCR (left) and relative complex III (0.5 mM duroquinol, 10 mM ADP)-driven OCR (right) were monitored by XF-96 analyser. Either Rot (complex I inhibitor) or antimycin A (AA, complex III inhibitor) was acutely added and OCR assayed immediately. […] Dashed lines represent the fitting curves used for determination of the IC50 values. (n.a., not applicable).
(§2) Mitochondrial bioenergetic function was measured in real time using the Seahorse XF 96 Extracellular Flux Analyzer (Agilent, North Billerica, MA)[11]–[13],[22]. The OCR-based assessment of mitochondrial complex activities was carried out on acutely permeabilized cells in the presence of different mitochondrial substrates, i.e., pyruvate/malate, for complex I and duroquinol for complex III[11],[14],[31],[32]. Rot, malonate, and antimycin A (Sigma-Aldrich, St. Louis, MO) were used as specific inhibitors of mitochondrial complexes I, II, and III, respectively. Briefly, cells that were intact after treatments were immediately permeabilized using the Seahorse XF Plasma Membrane Permeabilizer (Agilent). The mitochondrial complex I-driven OCR was assayed in mannitol and sucrose buffer[31] containing 10 mM pyruvate and 1.5 mM malate (substrates for complex I) and 10 mM malonate (which inhibits complex II activities). The mitochondrial complex III-driven OCR was assayed in mannitol and sucrose buffer containing 0.5 mM duroquinol (substrate for complex III) and 1 µM Rot and 10 mM malonate (which inhibit both complex I and II activities). The mitochondrial complex-dependent oxygen consumption (calculated as Rot- or antimycin A-inhibitable OCR equals basal OCR less OCR after Rot or antimycin A injection) was plotted against concentrations to determine the IC50 values.

[3] = tested on: A549 human lung cancer cells; experiment: IncuCyte cell proliferation (cell confluence), A549; format: cell-based; conditions: read-out: IC50, inhibition of cell proliferation (cell confluence)
Text: (§3) Previous reports provide evidence for enhanced uptake of several mitochondria-targeted cationic agents into cancer cells as compared with non-transformed control cells[11]–[14].
as §1
(§4) The IncuCyte Live-Cell Imaging system (IncuCyte Essen Bioscience Inc., Ann Arbor, MI) was used to monitor cell proliferation[11]–[13]. As shown in previous publications[11],[12], this imaging system is probe-free and noninvasive, and enables continuous monitoring of cell confluence over several days. […]

[4] = tested on: MDA-MB-231 human breast cancer cells; experiment: IncuCyte cell proliferation (cell confluence), MDA-MB-231; format: cell-based; conditions: MDA-MB-231 cells, read-out: IC50, inhibition of cell proliferation (cell confluence)
Text: as §3, §1, §4

[5] = tested on: LLC mouse lung cancer cells; experiment: IncuCyte cell proliferation (cell confluence), LLC; format: cell-based; conditions: Lewis lung carcinoma, read-out: IC50, inhibition of cell proliferation (cell confluence)
Text: as §3, §1, §4

[6] = tested on: LKR13 mouse lung cancer cells; experiment: IncuCyte cell proliferation (cell confluence), LKR13; format: cell-based; conditions: read-out: IC50, inhibition of cell proliferation (cell confluence)
Text: as §3, §1, §4

[7] = target: T2, mitochondrial complex III (Mus musculus, UniProt P00158+Q9CR68); experiment: Seahorse complex III-driven OCR in LLC cells; format: cell-based
T2 construct: carried out on acutely permeabilized cells in the presence of different mitochondrial substrates; endogenous in cells; host or cells: LLC (A11); LKR13 (A13)
Experimental: (§5) Dashed lines represent the fitting curves used for determination of the IC50 values.
as §2, with “The mitochondrial complex III-driven OCR was assayed in mannitol and sucrose buffer containing 0.5 mM duroquinol (substrate for complex III) and 1 µM Rot and 10 mM malonate (which inhibit both complex I and II activities).” left out

[8] = target: T2, mitochondrial complex III; experiment: Seahorse complex III-driven OCR in LKR13 cells; format: cell-based
Experimental: as §5
as §2, with “The mitochondrial complex III-driven OCR was assayed in mannitol and sucrose buffer containing 0.5 mM duroquinol (substrate for complex III) and 1 µM Rot and 10 mM malonate (which inhibit both complex I and II activities).” left out

[9] = target: T1, mitochondrial complex III; experiment: Seahorse complex III-driven OCR in A549 cells; format: cell-based; set-up: carried out on acutely permeabilized cells in the presence of different mitochondrial substrates; endogenous in cells; host or cells: A549 (A9)
Experimental: as §5
as §2, with “The mitochondrial complex III-driven OCR was assayed in mannitol and sucrose buffer containing 0.5 mM duroquinol (substrate for complex III) and 1 µM Rot and 10 mM malonate (which inhibit both complex I and II activities).” left out

For `CCCCOC1=C([C@H]2CC[C@H](c3ccc(Cl)cc3)CC2)C(=O)c2ccccc2C1=O` [Butyl-ATO], which “Antiproliferative effect compared with corresponding Mito-ATO analogs” value (MiaPaCa-2 cells) is on record?
The value was “much less effective”.

What about the “Treg differentiation and/or survival” value [1] of the same compound?
Its value is “did not inhibit”.

`O=C1C(OCCCCCCCCCCCC[P+](c2ccccc2)(c2ccccc2)c2ccccc2)=C([C@H]2CC[C@H](c3ccc(Cl)cc3)CC2)C(=O)c2ccccc21` [Mito12-ATO] was tested. Which “Foxp3+ Treg differentiation and/or survival” value [1] did it give?
The value was “did not appreciably inhibit”.

And the “Inhibition of complex III-induced oxygen consumption” value [2]?
Its value is “did not inhibit”.

What does the source list for `O=C1C(OCCCCCCCCCCCCCCCC[P+](c2ccccc2)(c2ccccc2)c2ccccc2)=C([C@H]2CC[C@H](c3ccc(Cl)cc3)CC2)C(=O)c2ccccc21` [Mito16-ATO]?
IC50 (MiaPaCa-2 cells): 3000 nM; Inhibition of complex III-induced oxygen consumption [2]: did not inhibit

Which results are given for `O=C1C(O)=C([C@H]2CC[C@H](c3ccc(Cl)cc3)CC2)C(=O)c2ccccc21` [ATO, Atovaquone]?
IC50 (MiaPaCa-2 cells): 18000 nM; IC50 [3]: 16000 nM; IC50 [4]: 18000 nM; IC50 [5]: 13000 nM; IC50 [6]: 10000 nM; Treg differentiation and/or survival [1]: did not inhibit

Which results are given for `O=C1C(OCCCC[P+](c2ccccc2)(c2ccccc2)c2ccccc2)=C([C@H]2CC[C@H](c3ccc(Cl)cc3)CC2)C(=O)c2ccccc21` [Mito4-ATO]?
IC50 (MiaPaCa-2 cells): 180 nM; Foxp3+ Treg differentiation and/or survival [1]: inhibited; Teff cell IFNγ production [1]: promoted; IC50 [2]: 580 nM

Which results are given for `CCCCCCCCCCOC1=C([C@H]2CC[C@H](c3ccc(Cl)cc3)CC2)C(=O)c2ccccc2C1=O` [Decyl-ATO]?
Antiproliferative effect compared with corresponding Mito-ATO analogs (MiaPaCa-2 cells): much less effective; Treg differentiation and/or survival [1]: did not inhibit

For `O=C1C(OCCCCCCCCCC[P+](c2ccccc2)(c2ccccc2)c2ccccc2)=C([C@H]2CC[C@H](c3ccc(Cl)cc3)CC2)C(=O)c2ccccc21` [Mito10-ATO], which IC50 (MiaPaCa-2 cells) is on record?
Its IC50 is 220 nM.

What about the IC50 [3] of the same compound?
Its IC50 is 140 nM.

What about the IC50 [4] of the same compound?
The IC50 was 230 nM.

What about the IC50 [5] of the same compound?
Its IC50 is 460 nM.

And the IC50 [6]?
The IC50 was 500 nM.

And the IC50 [7]?
Its IC50 is 500 nM.

And the IC50 [8]?
The IC50 was 2100 nM.

What about the “Foxp3+ Treg differentiation and/or survival” value [1] of the same compound?
The value was “inhibited”.

What about the “Teff cell IFNγ production” value [1] of the same compound?
The value was “promoted”.

What about the IC50 [9] of the same compound?
The IC50 was 1000 nM.

And the IC50 [2]?
Its IC50 is 780 nM.
